Laboratory results from US20070219214A1, “Dual NK2/NK3-antagonists, pharmaceutical compositions comprising them, and processes for their preparation” (Solvay pharmaceuticals GmbH, priority 2006, published 2007).

What was measured:
[1] = biological target: T1, human NK1-receptor (Homo sapiens, UniProt P25103); test: Functional cellular test, Ca2+ measurements using FLIPR for NK1 activity; type: cell-based; design: expressed in transfected cells; host or cells: CHO fibroblast cells; conditions: read-out: pA2 data for NK1 (converted)
Source text: The NK receptor is coupled to Gq.
All steps were done under sterile conditions.

[2] = biological target: T2, human NK3 receptor (Homo sapiens, UniProt P29371); test: Functional cellular test, Ca2+ measurements using aequorin for NK3 activity; type: cell-based; design: expressed in transfected cells; host or cells: cell line co-expressing mitochondrially targeted apoaequorin (CHO according to b76/b77); conditions: read-out: pA2 data for NK3 (converted)
T2 sequence (P29371 1-465): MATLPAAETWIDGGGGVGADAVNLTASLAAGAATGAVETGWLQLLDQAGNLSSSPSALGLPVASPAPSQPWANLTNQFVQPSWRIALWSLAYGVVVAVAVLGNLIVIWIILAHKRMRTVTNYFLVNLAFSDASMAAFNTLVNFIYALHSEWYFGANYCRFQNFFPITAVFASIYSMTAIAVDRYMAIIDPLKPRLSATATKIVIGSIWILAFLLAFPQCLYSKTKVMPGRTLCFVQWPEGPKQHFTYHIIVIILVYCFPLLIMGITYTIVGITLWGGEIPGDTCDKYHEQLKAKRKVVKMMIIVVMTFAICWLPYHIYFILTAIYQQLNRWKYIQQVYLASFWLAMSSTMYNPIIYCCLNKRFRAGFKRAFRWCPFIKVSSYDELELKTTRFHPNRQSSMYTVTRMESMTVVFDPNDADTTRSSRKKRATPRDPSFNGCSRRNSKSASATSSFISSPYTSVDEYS

[3] = biological target: T3, human NK2-receptor (Homo sapiens, UniProt P21452); test: Binding potency of the test substances to NK2-receptors in vitro ([3H]-SR 48968 displacement); design: expressed in transfected cells; host or cells: CHO cells (membrane preparation); conditions: human NK2-receptor in CHO cell membranes, [3H]-SR 48968 (saredutant); average of at least three measurements; read-out: pKi, binding potency to NK2-receptors (converted)
T3 sequence (P21452 1-398): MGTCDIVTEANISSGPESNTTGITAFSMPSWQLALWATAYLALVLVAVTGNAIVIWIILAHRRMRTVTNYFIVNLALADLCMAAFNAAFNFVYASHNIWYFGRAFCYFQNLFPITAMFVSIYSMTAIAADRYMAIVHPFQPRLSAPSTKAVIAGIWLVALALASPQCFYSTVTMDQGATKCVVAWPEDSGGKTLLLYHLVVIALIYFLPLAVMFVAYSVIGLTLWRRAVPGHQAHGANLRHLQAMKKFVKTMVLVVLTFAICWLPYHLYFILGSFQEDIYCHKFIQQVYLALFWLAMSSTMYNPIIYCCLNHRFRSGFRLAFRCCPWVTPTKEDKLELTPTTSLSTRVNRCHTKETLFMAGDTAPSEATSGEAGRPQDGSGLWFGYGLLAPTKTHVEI
How it was run: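 Membranes from CHO cells stably expressing the receptor were incubated with [3H]-saredutant plus test compound, then filtered and counted by liquid scintillation. Nonspecific binding defined with 0.1 μmol/l unlabeled saredutant. IC50 from displacement converted to Ki via Cheng-Prusoff and reported as pKi, averaged over measurements.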

[4] = biological target: T3, human NK2-receptor; test: Functional cellular test, Ca2+ measurements using FLIPR for NK2 activity;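 also: CHO cells stably expressing the human receptor, loaded with a calcium dye, antagonist inhibition of ligand-evoked intracellular calcium rise read as peak fluorescence change on FLIPR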
[5] = biological target: T1, human NK1-receptor; test: Binding potency of the test substances to NK1-receptors in vitro ([3H]-Substance P displacement); conditions: human NK1-receptor in CHO cell membranes, average of at least three measurements, read-out: pKi, binding potency to NK1-receptors (converted)
Description: 1. Determination of the Binding Potency of the Test Substances to NK1-Receptors in Vitro
The affinity of test compounds for NK1-receptors can be determined by measuring the ability of the test compound to displace a radiolabeled ligand from its specific binding site. The tests were performed at Solvay Pharmaceuticals, Weesp, The Netherlands.
Separation of bound radioactivity from free radioactivity was done by filtration through glass fiber filters (Packard GF/B) with several washings with ice-cold buffer solution. Bound radioactivity was measured with a liquid scintillation counter (total binding).
The inhibition constant (Ki) was calculated according to the Cheng-Prusoff equation, and listed as its negative logarithmic value (pKi). The pKi value describes the potency of a test compound to bind to a receptor.

[6] = biological target: T2, human NK3 receptor; test: Binding potency of the test substances to NK3-receptors in vitro ([3H]-SR 142801 displacement); design: expressed in transfected cells; host or cells: CHO cells (membrane preparation); conditions: human NK3-receptor in CHO cell membranes, [3H]-SR 142801 (osanetant); average of at least three measurements; read-out: pKi, binding potency to NK3-receptors (converted)
How it was run: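 [3H]-osanetant displacement on membranes from CHO cells stably expressing the human receptor, with bound ligand separated by filtration and counted by scintillation. Nonspecific binding defined with 1 μmol/l unlabeled osanetant. IC50 converted to Ki by Cheng-Prusoff and reported as pKi, averaged over measurements.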

T1 sequence (P25103 whole entry): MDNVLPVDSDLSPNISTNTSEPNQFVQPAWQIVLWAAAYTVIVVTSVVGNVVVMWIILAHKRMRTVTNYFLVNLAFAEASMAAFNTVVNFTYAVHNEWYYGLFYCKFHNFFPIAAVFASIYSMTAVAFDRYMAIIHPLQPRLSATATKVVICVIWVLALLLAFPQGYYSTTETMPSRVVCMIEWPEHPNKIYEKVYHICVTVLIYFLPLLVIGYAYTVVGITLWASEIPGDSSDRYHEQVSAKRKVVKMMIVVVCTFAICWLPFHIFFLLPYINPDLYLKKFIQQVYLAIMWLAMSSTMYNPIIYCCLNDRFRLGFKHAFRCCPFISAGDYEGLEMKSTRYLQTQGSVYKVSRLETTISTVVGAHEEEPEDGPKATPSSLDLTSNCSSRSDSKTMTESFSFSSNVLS

| Kb [1] | Kb [2] | Ki [3] | Kb [4] | Ki [5] | Ki [6] | Compound |
| --- | --- | --- | --- | --- | --- | --- |
| 31.6 nM | 100 nM | 2 nM | 0.0794 nM | 25.1 nM |  | CCC(=O)N(CC1CC1)C1CCN(CC[C@H](CN(C)C(=O)c2ccccc2)c2ccc(Cl)c(Cl)c2)CC1 [compound 105, N-[(2S)-4-{4-[(cyclopropylmethyl)(Propionyl)-amino]piperidin-1-yl}-2-(3,4-dichlorophenyl)butyl]-N-methylbenzamide] |
| 31.6 nM | 50.1 nM | 2 nM | 2 nM | 50.1 nM |  | CN(C[C@@H](CCN1CCC(C(=O)N2CCCC2)(N2CCCC2)CC1)c1ccc(Cl)c(Cl)c1)C(=O)c1ccccc1 [compound 103, N-{(2S)-2-(3,4-dichlorophenyl)-4-[4-pyrrolidin-1-yl-4-(pyrrolidin-1-ylcarbonyl)piperidin-1-yl]butyl}-N-methylbenzamide] |
| 79.4 nM | 5.01 nM | 1.26 nM | 3.98 nM | 79.4 nM | 10 nM | CN(C)C(=O)C1(N2CCCCC2)CCN(CCC(CN(C)C(=O)c2cc(Cl)ccc2F)c2ccc(Cl)c(Cl)c2)CC1 (stereo not drawn) [compound 10] |
| 2 nM | 39.8 nM | 5.01 nM | 39.8 nM | 2 nM |  | CN(C[C@@H](CCN1CCC(C(=O)N2CCCC2)(N2CCCC2)CC1)c1ccc(Cl)c(Cl)c1)C(=O)c1cc(C#N)cc2ccccc12 [compound 102, 3-cyano-N-{(2S)-2-(3,4-dichlorophenyl)-4-[4-pyrrolidin-1-yl-4-(pyrrolidin-1-ylcarbonyl)piperidin-1-yl]butyl}-N-methyl-1-naphthamide] |
